How the values were obtained:
caspase-1 = target: T1, caspase-1 (Homo sapiens, UniProt P29466); assay: Caspase-1 inhibition assay (Ac-YVAD-AMC); assay type: biochemical
T1 sequence (P29466 120-404): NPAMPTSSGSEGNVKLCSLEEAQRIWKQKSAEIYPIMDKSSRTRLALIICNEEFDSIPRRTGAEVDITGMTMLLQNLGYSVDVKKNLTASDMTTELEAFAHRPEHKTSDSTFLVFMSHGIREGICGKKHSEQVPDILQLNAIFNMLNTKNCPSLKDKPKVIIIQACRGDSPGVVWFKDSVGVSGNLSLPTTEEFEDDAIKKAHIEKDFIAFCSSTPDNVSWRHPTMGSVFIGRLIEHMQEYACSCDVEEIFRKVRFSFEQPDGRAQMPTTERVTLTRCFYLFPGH
Description: Caspase-1 and caspase-11 inhibition assays: the fluorogenic assay for caspase-1 and caspase-11 activity is based on release of 7-amino-4-methylcoumarin (AMC) from the caspase substrate Ac-YVAD-AMC. Compounds (8 nM-50 μM) were incubated with 0.5 U of caspase-1 or caspase-11 for 30 min in assay buffer (20 mM HEPES, 150 mM NaCl) in 384-well plates (Corning 3820) before addition of Ac-YVAD-AMC (40 μM) to initiate the reactions. Reactions were monitored in a SpectraMax M5 plate reader (Molecular Devices, Sunnyvale, Calif. USA) with excitation/emission wavelengths at 350/460 nm. The fluorescence intensity of each reaction was recorded every 2 min for 2 hrs.
Fluorescence intensity at 460 nm was measured after excitation at 350 nm.

GSDMD pore formation = assay: GSDMD membrane staining and pyroptotic bubbles, immunofluorescence; assay type: cell-based, human; conditions: 30 μM, 30 min after nigericin
Description: Immunostaining and confocal microscopy: cells grown on coverslips were fixed for 15 min with 4% paraformaldehyde in PBS, permeabilized for 5 min in 0.1% Triton X-100 in PBS and blocked using 5% BSA for 1 hr. Then, cells were stained with the indicated primary antibodies followed by incubation with fluorescent-conjugated secondary antibodies (Jackson ImmunoResearch). Nuclei were counterstained with DAPI (4,6-diamidino-2-phenylindole) (Sigma-Aldrich). Slides were mounted using Aqua-Poly/Mount (Dako). Images were captured using a laser scanning confocal microscope (Olympus Fluoview FV1000 Confocal System) with a 63× water immersion objective and Olympus Fluoview software (Olympus). All confocal images are representative of three independent experiments.
To assess which steps in NLRP3-mediated inflammation were inhibited post ASC speck formation, LPS-primed THP-1 cells were treated with vehicle or 30 μM z-VAD-fmk, disulfiram or Bay 11-7082 1 hr before adding nigericin, and cleavage and activation of caspase-1, GSDMD, and pro-IL-1β were analysed by immunoblot of whole cell lysates 30 min later (FIG. 50). Secretion of processed IL-1β was also assessed by immunoblot of culture supernatants. […] Because immunoblots are not quantitative, caspase-1 activity 30 min after adding nigericin was also assessed using a fluorescent substrate in intact cells. […] Next, the effect of z-VAD-fmk, disulfiram and Bay 11-7082 on LPS+nigericin-induced GSDMD pore formation was assessed by immunofluorescence microscopy using a monoclonal antibody that was generated that recognizes both uncleaved GSDMD and its pore form (FIGS. 53, 54, and 64-66). […]
Cell death was determined by CytoTox96 assay. […] Cell death was determined by CytoTox96 assay. […] Representative images of ASC specks (arrowheads) and mean±s.d. percent of cells with ASC specks analyzed 20 min later (FIG. 47). […] Caspase-1 activity was assayed 30 min after adding nigericin using a cell-permeable fluorescence dye FAM-YVAD-FMK (FIG. 52). […]

Row | SMILES | IC50 (caspase-1) [µM] | effect of Cu(II) on caspase-1 inhibition (caspase-1; with Cu(II)) | GSDMD membrane staining and pyroptotic bubbles (GSDMD pore formation) | caspase-1 inhibition (caspase-1)
1 | CCN(CC)C(=S)SSC(=S)N(CC)CC [C-23, Tetraethylthiuram disulfide] | 0.15 ± 0.04 | did not strongly change | completely blocked | 
2 | Cc1ccc(S(=O)(=O)/C=C/C#N)cc1 [Bay 11-7082] |  |  | completely blocked | inhibited

Reference: US20210267996A1, “Compounds for inhibition of inflammation” (Children`s Medical Center Corporation, priority 2018, published 2021)
